Some test systems named below: HCT-116; HOP-92; COLO 205; OVCAR-8; SNB-75; K562; NCI-H23; MOLT-4; NCI-H226; HL-60; ACHN; UO-31; RXF 393; T47D; MDA-MB-231; SR; OVCAR-3; CCRF-CEM; SK-OV-3; LOX IMVI.
Holding throughout (test): growth of human tumour cells (NCI), 48 h

We go through ten compounds from ChEMBL document CHEMBL1201862, “PubChem BioAssay data set” (2004).

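Values below derive from 48-hour exposures of cells grown in 96-well plates, with endpoints linearly interpolated between the two concentrations bracketing the appropriate inhibition level. Here, GI50 denotes the concentration required for 50% inhibition of growth.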 Calls of active or inactive are those of the source. Cut-off read from the data, not from the text of the source: active = GI50 up to about 1.1 µM and inactive = higher.

Regarding `COC(=O)CNC(=O)CCSc1nnc(COc2ccc(Cl)cc2)n1-c1ccccc1`, the GI50 is 37.5 µM (inactive) with HCT-116; 33.6 µM (inactive) with HOP-92; 32.1 µM (inactive) in the assay on COLO 205; 34.9 µM (inactive) with OVCAR-8; 20.4 µM (inactive) with SNB-75; 30.3 µM (inactive) in the assay with K562. Also, the GI50 with NCI-H23 is 45.6 µM (inactive); with MOLT-4, 24.7 µM (inactive); with NCI-H226, 16 µM (inactive); in the assay on HL-60 it was 30 µM (inactive); in the assay on ACHN, 34.4 µM (inactive); with UO-31 it was 34.8 µM (inactive). Besides, the GI50 in the assay on RXF 393 was 25.8 µM (inactive); in the assay with T47D it was 25.9 µM (inactive); in the assay on MDA-MB-231 it was 21 µM (inactive); in the assay with SR it was > 10 µM (inactive); in the assay with OVCAR-3, 30.9 µM (inactive); in the assay with CCRF-CEM it was 55.5 µM (inactive). Besides, the GI50 in the assay with SK-OV-3 is > 100 µM (inactive); with LOX IMVI, 29.1 µM (inactive).
`N#Cc1c(-c2ccc(Cl)cc2)c2c([nH]c1=O)-c1cc([N+](=O)[O-])ccc1CCC2`: the GI50 was 14.3 µM (inactive) with HCT-116; 14.4 µM (inactive) with HOP-92; 19.1 µM (inactive) with COLO 205; 20.5 µM (inactive) in the assay with OVCAR-8; 23.3 µM (inactive) with SNB-75; 35.4 µM (inactive) in the assay on K562. The GI50 in the assay with NCI-H23 was 15.2 µM (inactive); in the assay with MOLT-4 it was 38 µM (inactive); in the assay with NCI-H226, 17.1 µM (inactive); in the assay on HL-60 it was 20 µM (inactive); in the assay with ACHN it was 25.3 µM (inactive); in the assay on UO-31, 16 µM (inactive). In addition, the GI50 in the assay with RXF 393 is 16.1 µM (inactive); with T47D, 30.9 µM (inactive); in the assay on MDA-MB-231, 22.4 µM (inactive); in the assay with SR, 28.4 µM (inactive); with OVCAR-3, 12.8 µM (inactive); in the assay with CCRF-CEM, 25.2 µM (inactive). The GI50 in the assay on SK-OV-3 is 28.7 µM (inactive); with LOX IMVI it was 17.5 µM (inactive).
Regarding `O=c1[nH]c2nc3ccccc3c(=O)n2/c1=C/c1ccc(O)cc1`, the GI50 is 36.8 µM (inactive) with HCT-116; 49.5 µM (inactive) with HOP-92; 43.9 µM (inactive) with COLO 205; 22 µM (inactive) with OVCAR-8; 23.8 µM (inactive) with SNB-75; 49 µM (inactive) with NCI-H23. For the same compound, the GI50 in the assay on MOLT-4 was 31.7 µM (inactive); with NCI-H226 it was 38.7 µM (inactive); with HL-60, 26 µM (inactive); in the assay on ACHN, 56.1 µM (inactive); in the assay with UO-31, 53.7 µM (inactive); in the assay with RXF 393, 40.2 µM (inactive). Besides, the GI50 with T47D is 42.2 µM (inactive); with MDA-MB-231 it was 60.3 µM (inactive); in the assay on SR, 16.9 µM (inactive); with OVCAR-3, 27 µM (inactive); in the assay on CCRF-CEM, 20.8 µM (inactive); in the assay with SK-OV-3 it was > 100 µM (inactive). Further, the GI50 in the assay on LOX IMVI is 35.6 µM (inactive).
For the compound `COc1ccc(COCC[C@H](C)OC2OC(CO[Si](C)(C)C(C)(C)C)C(O)C(O)C2O)cc1` (stereo partly specified), the GI50 with HCT-116 is > 100 µM (inactive); in the assay on HOP-92, > 100 µM (inactive); with COLO 205 it was > 100 µM (inactive); with OVCAR-8, > 100 µM (inactive); in the assay on SNB-75 it was 44.2 µM (inactive); with K562, > 100 µM (inactive). The GI50 with NCI-H23 was > 100 µM (inactive); in the assay with MOLT-4, 56.9 µM (inactive); in the assay on NCI-H226, > 100 µM (inactive); with HL-60, > 100 µM (inactive); with ACHN it was > 100 µM (inactive); in the assay on UO-31, 81.8 µM (inactive). The GI50 in the assay with RXF 393, in the assay with T47D, in the assay on MDA-MB-231, in the assay with SR, with OVCAR-3 and with CCRF-CEM was > 100 µM (inactive) throughout. The GI50 in the assay on SK-OV-3 and in the assay with LOX IMVI was > 100 µM (inactive) throughout.
Regarding `COC(=O)c1sc2c(c1C(=O)OC)/C(=N/c1ccc(OC)cc1)S/C2=N\c1ccc(OC)cc1`, the GI50 was 0.451 µM (active) in the assay with HCT-116; 1.51 µM (inactive) in the assay with HOP-92; 0.7 µM (active) in the assay with COLO 205; 0.944 µM (active) in the assay with OVCAR-8; 0.787 µM (active) in the assay with SNB-75; 0.389 µM (active) in the assay on K562. Also, the GI50 with NCI-H23 was 1.57 µM (inactive); in the assay on MOLT-4, 0.248 µM (active); in the assay with NCI-H226 it was 1.74 µM (inactive); in the assay on HL-60, 0.245 µM (active); in the assay with ACHN it was 1.24 µM (inactive); with UO-31, 0.865 µM (active). In addition, the GI50 in the assay on RXF 393 was 0.47 µM (active); in the assay on T47D, 0.982 µM (active); in the assay on MDA-MB-231 it was 0.853 µM (active); in the assay with SR, 0.485 µM (active); in the assay with OVCAR-3, 0.611 µM (active); in the assay on CCRF-CEM, 0.104 µM (active). For the same compound, the GI50 with SK-OV-3 was 1.69 µM (inactive); with LOX IMVI, 0.258 µM (active).
As for `CC1=NN(c2nc(N)nc(/C(C#N)=C\c3cccc([N+](=O)[O-])c3)n2)C(C)(C)C1`, the GI50 was 10.4 µM (inactive) with HCT-116; > 24.4 µM (inactive) in the assay on HOP-92; 14.9 µM (inactive) with COLO 205; 7.29 µM (inactive) with OVCAR-8; 6.68 µM (inactive) with SNB-75; 11.9 µM (inactive) in the assay with K562. Moreover, the GI50 with NCI-H23 was 10.1 µM (inactive); in the assay on MOLT-4, 34.6 µM (inactive); in the assay on HL-60 it was 0.205 µM (active); in the assay with ACHN, 15.8 µM (inactive); with UO-31 it was 5.32 µM (inactive); in the assay on RXF 393, 5.19 µM (inactive). In addition, the GI50 is 11 µM (inactive) with T47D; 9.29 µM (inactive) with MDA-MB-231; 30.1 µM (inactive) with SR; 6.76 µM (inactive) with OVCAR-3; 10.8 µM (inactive) with CCRF-CEM; 11.9 µM (inactive) with SK-OV-3. Further, the GI50 with LOX IMVI was 7.13 µM (inactive).
`COC(=O)c1cc2ccc(OC(C)=O)c(OC(C)=O)c2cn1`: the GI50 in the assay with HCT-116 is 17.3 µM (inactive); in the assay with HOP-92, 17.1 µM (inactive); with COLO 205 it was 18.7 µM (inactive); in the assay on OVCAR-8 it was 7.64 µM (inactive); with SNB-75, 20 µM (inactive); with K562, 2.72 µM (inactive). The GI50 with NCI-H23 is 18 µM (inactive); in the assay on MOLT-4, 4.12 µM (inactive); with NCI-H226, 22.9 µM (inactive); in the assay with HL-60, 2.72 µM (inactive); in the assay on ACHN, 17.1 µM (inactive); with UO-31, 15.8 µM (inactive). Besides, the GI50 in the assay on RXF 393 is 17.4 µM (inactive); in the assay on T47D, > 10 µM (inactive); in the assay on MDA-MB-231, 4.01 µM (inactive); in the assay with SR, 2.65 µM (inactive); with OVCAR-3, 13 µM (inactive); with CCRF-CEM it was 2.29 µM (inactive). Moreover, the GI50 in the assay with SK-OV-3 was 19.4 µM (inactive); in the assay on LOX IMVI, 1.42 µM (inactive).
`CC(C)C(N)(C(=O)O)c1ccccc1` (stereo unspecified): the GI50 in the assay on HCT-116, in the assay with HOP-92, in the assay with COLO 205, with OVCAR-8, in the assay on SNB-75 and with K562 was > 100 µM (inactive) in each case. Also, the GI50 in the assay on NCI-H23, in the assay on NCI-H226, in the assay with HL-60, in the assay on ACHN, in the assay with UO-31 and in the assay with RXF 393 was > 100 µM (inactive) throughout. The GI50 in the assay with T47D, in the assay with MDA-MB-231, with SR, with OVCAR-3, in the assay with CCRF-CEM and in the assay with SK-OV-3 was > 100 µM (inactive) in each case. In addition, the GI50 in the assay on LOX IMVI was > 100 µM (inactive).
For `CCc1ncnc2cc(OCC3CO3)c(OC)cc12` (stereo unspecified), the GI50 is 0.577 µM (active) with HCT-116; 4.26 µM (inactive) with HOP-92; 8.17 µM (inactive) with COLO 205; 0.647 µM (active) in the assay on OVCAR-8; 17.3 µM (inactive) in the assay on SNB-75; 1.1 µM (active) with K562. Besides, the GI50 in the assay with NCI-H23 is 2.61 µM (inactive); in the assay with MOLT-4, 0.153 µM (active); in the assay with NCI-H226 it was 6.49 µM (inactive); in the assay with HL-60, 0.889 µM (active); in the assay with ACHN, 1.37 µM (inactive); in the assay with UO-31, 2.03 µM (inactive). In addition, the GI50 in the assay with RXF 393 is 2.28 µM (inactive); in the assay with T47D, 20.9 µM (inactive); in the assay on MDA-MB-231 it was 7.24 µM (inactive); in the assay with SR, 0.209 µM (active); in the assay on OVCAR-3, 11.1 µM (inactive); with CCRF-CEM, 0.436 µM (active). Moreover, the GI50 was 22.9 µM (inactive) in the assay with SK-OV-3 and 0.646 µM (active) in the assay with LOX IMVI.
For the compound `CCOC(=O)c1nc2ccc(C(F)(F)F)cc2nc1Oc1ccc(C#N)cc1`, the GI50 in the assay with HCT-116 is 48.5 µM (inactive); in the assay with HOP-92 it was 17 µM (inactive); in the assay on COLO 205, 27.4 µM (inactive); with OVCAR-8 it was 19.6 µM (inactive); with SNB-75 it was 14.5 µM (inactive); in the assay with K562, > 100 µM (inactive). Also, the GI50 is 40.3 µM (inactive) in the assay on NCI-H23; > 100 µM (inactive) in the assay on MOLT-4; 11.3 µM (inactive) in the assay with NCI-H226; > 100 µM (inactive) in the assay on HL-60; 29.9 µM (inactive) in the assay on ACHN; 40.3 µM (inactive) with UO-31. Further, the GI50 in the assay on RXF 393 is 20 µM (inactive); in the assay with T47D, 28.4 µM (inactive); with MDA-MB-231, 12.9 µM (inactive); in the assay with SR, 81.5 µM (inactive); in the assay on CCRF-CEM, > 100 µM (inactive); with SK-OV-3, 15.7 µM (inactive). The GI50 in the assay on LOX IMVI was 39.6 µM (inactive).
